Experimental data taken from article PMC10545732, “Structure-based drug discovery of a corticotropin-releasing hormone receptor 1 antagonist using an X-ray free-electron laser” (Experimental & Molecular Medicine, 2023).

Tests used:
CYP2C19 = molecular target: T1, CYP2C19 (Homo sapiens, UniProt P33261); assay: CYP inhibition assay CYP2C19 (S-mephenytoin 4-hydroxylase); format: in vitro ADME; settings: 10 μM, human liver microsomes, n = 3
T1 construct: 0.25 mg/mL human liver microsomes; from tissue; host or cells: human liver microsomes
Procedure: Phenacetin O-demethylase, diclofenac 4-hydroxylase, S-mephenytoin 4-hydroxylase, dextromethorphan O-demethylase, and midazolam 1’-hydroxylase activities were determined as probe activities for CYP1A2, CYP2C9, CYP2C19, CYP2D6, and CYP3A4, respectively, using cocktail incubation. […] The cocktail incubation mixtures consisted of 0.25 mg/mL human liver microsomes, 0.1 M phosphate buffer (pH 7.4), an NADPH regeneration system, and inhibitors (CRF1R antagonist compounds, 10 µM) in a total volume of 100 μL. The final volume of the organic solvents in the incubation mixture was 1% (v/v). […] All incubations were performed in triplicate, and the mean values were used for analysis. The samples were then centrifuged at 15,000 rpm for 5 min at 4 °C. […] The CYP-mediated activities in the presence of inhibitors were expressed as percentages of the corresponding control values.

hCMECs/D3 = assay: In vitro BBB permeability assay; format: in vitro ADME, human
Procedure: Human cerebral microvascular endothelial cells (hCMECs/D3, SCC066; Sigma-Aldrich) were used to assess the permeability of CRF1R antagonists across the BBB. hCMECs were seeded on Falcon^TM cell culture inserts (08-770, Fisher Scientific) with 0.4 μm pore sizes precoated with collagen type I from rat tails (354236, Corning) at a density of 50,000 cells/mL in endothelial cell growth medium-2 (EGM-2, CC-3162; Lonza). The medium was changed with EGM-2 every three to four days for proliferation and with EGM-2 containing 2.5% human serum (SLBX6020, Sigma-Aldrich) for differentiation. Cell culture inserts were transferred into 24-well plates containing 700 μL of EGM-2 in each well (basolateral compartment) for the permeability assay. The medium in the inserts (apical compartment) was then replaced with 300 μL EGM-2 containing 10 μM BMK-C203 or BMK-C205. Apical and basolateral compartments were collected after a 12-h incubation at 37 °C, and drug concentrations were measured using HPLC. For sample preparation, 50 μL of the sample was mixed with 10 μL of an internal standard solution (d4-cortisol). Subsequently, 50 μL of acetonitrile was added, and the mixture was centrifuged at 16,000×g for 10 min for protein precipitation. The supernatants were used for LC‒MS analysis with a triple quadrupole mass spectrometer coupled with HPLC using a C18 reversed-phase column. The concentration of the antagonists was determined using a calibration curve. The permeability coefficient (P) was calculated according to Pardridge et al.[34]. The permeability-surface area product (PS, in cm^3/s) was divided by the filter surface area A (in cm^2) using Eq. (1) as follows:1 Pcm/s=Vd×△Ma/A×[…]×△t where Vd is the volume in the donor compartment in cm^3, ΔMa is the total amount of the compound in the […] compartment after t seconds, Md is the donor amount, Δt is the incubation time, and A is the filter area in cm^2.

T1 sequence (P33261 whole entry): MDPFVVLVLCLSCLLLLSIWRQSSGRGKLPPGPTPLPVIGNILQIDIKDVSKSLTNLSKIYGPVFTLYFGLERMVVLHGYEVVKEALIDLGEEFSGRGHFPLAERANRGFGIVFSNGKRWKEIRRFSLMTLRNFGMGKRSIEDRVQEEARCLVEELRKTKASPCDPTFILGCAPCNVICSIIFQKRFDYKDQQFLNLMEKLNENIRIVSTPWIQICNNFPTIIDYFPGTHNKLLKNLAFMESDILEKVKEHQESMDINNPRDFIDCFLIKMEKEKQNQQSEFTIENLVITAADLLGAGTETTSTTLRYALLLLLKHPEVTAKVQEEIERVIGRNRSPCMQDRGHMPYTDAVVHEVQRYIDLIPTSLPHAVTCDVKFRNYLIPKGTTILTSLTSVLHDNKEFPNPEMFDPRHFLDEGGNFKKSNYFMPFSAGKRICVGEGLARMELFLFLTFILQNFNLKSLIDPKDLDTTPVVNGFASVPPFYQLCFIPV

SMILES | CYP2C19, percentage of control activity (CYP2C19) | permeability coefficient relative to BMK-C203 (hCMECs/D3)
COc1cc(Br)cc(OC)c1-c1c(C)nn2c(N(CCCC(F)(F)F)CCCC(F)(F)F)nc(C)nc12 [BMK-C203] | 83.2 ± 0.5 percentage of control activity | 
CCCCN(CC1CC1)c1nc(C)nc2c(-c3c(OC)cc(Br)cc3OC)c(C)nn12 [BMK-C205] | 89.7 ± 3.8 percentage of control activity | seven times higher
